Measured values as given in PubChem BioAssay (NCI).
“And” between values parts separate entries of the source, which are not always exact repeats. Equal entries are not always repeated.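 Growth conditions: 96-well plates. Treatment: test compound, 48 hours, 5 concentrations. Analysis: linear interpolation between bracketing concentrations; unreached endpoints set to highest concentration. The concentration for 50% growth inhibition is given as GI50. TGI: concentration producing complete growth inhibition.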

What was measured:
Experiment in all cases: NCI tumour cell line growth inhibition, 48 h
DU-145 prostate = system: DU-145 prostate
HCC-2998 colon = system: HCC-2998 colon
HOP-62 NSCLC = system: HOP-62 NSCLC
NCI-H23 lung = system: NCI-H23 lung
OVCAR-3 ovarian = system: OVCAR-3 ovarian
SK-MEL-5 melanoma = system: SK-MEL-5 melanoma
SW-620 colon = system: SW-620 colon
UO-31 renal = system: UO-31 renal
HL-60(TB) leukemia = system: HL-60(TB) leukemia
SF-539 CNS = system: SF-539 CNS

| Structure (SMILES) | TGI (DU-145 prostate) [µM] | TGI (HCC-2998 colon) | TGI (HOP-62 NSCLC) | TGI (NCI-H23 lung) | TGI (OVCAR-3 ovarian) | TGI (SK-MEL-5 melanoma) | TGI (SW-620 colon) | TGI (UO-31 renal) | TGI (HL-60(TB) leukemia) | TGI (SF-539 CNS) | GI50 (HCC-2998 colon) | GI50 (HL-60(TB) leukemia) |
| --- | --- | --- | --- | --- | --- | --- | --- | --- | --- | --- | --- | --- |
| Nc1ccc(N=Nc2c(S(=O)(=O)O)cc3ccccc3c2S(=O)(=O)O)cc1 | > 100 | > 100 µM | > 100 µM | > 100 µM | > 100 µM | > 100 µM | > 100 µM | > 100 µM |  |  |  |  |
| O=C(/C=C/c1ccccc1)Oc1ccc(C(=O)/C=C/c2ccccc2)cc1 | 14.9 | 15.3 µM | 21.6 µM | 22.4 µM | 16 µM | 37 µM | 18.6 µM | 15.3 µM | 8.2 µM | 22.3 µM |  |  |
| O=C(O)c1ccccc1CC(Cc1ccc2c(c1)CCC2)C(=O)O (centres undefined) | > 100 | > 100 µM | > 100 µM | > 100 µM | > 100 µM | > 100 µM | > 100 µM | > 100 µM | > 100 µM | > 100 µM |  |  |
| COC(=O)C1CCCC2(C1)OCCO2 (centres undefined) |  | > 100 µM | > 100 µM | > 100 µM | > 100 µM | > 100 µM | > 100 µM | > 100 µM |  | > 100 µM |  |  |
| O=C(CCn1ccnc1[N+](=O)[O-])NCCCn1ccnc1[N+](=O)[O-] | > 100 |  | > 100 µM | > 100 µM | > 100 µM | > 100 µM | > 100 µM | > 100 µM | > 100 µM | > 100 µM |  |  |
| CN1CCOC1c1ccccc1O (centres undefined) |  |  | > 100 µM | > 100 µM | > 100 µM | > 100 µM | > 100 µM | > 100 µM |  | > 100 µM |  |  |
| On1c(-c2ccccc2)c(-c2ccccc2N2CCCC2)c2ccccc21 |  | > 100 µM | > 100 µM | > 100 µM | > 100 µM | > 100 µM | > 100 µM |  | > 100 µM | > 100 µM |  |  |
| O=C(O)CN1CCNCCN(CC(=O)O)CCN(CC(=O)O)CCNCC1 | > 100 |  | > 100 µM |  | > 100 µM | > 100 µM | > 100 µM | > 100 µM | 64.6 µM | > 100 µM |  |  |
| C[C@H](CCC(=O)O)[C@H]1CC[C@H]2[C@@H]3C(=O)C[C@@H]4C[C@H](O)CC[C@]4(C)[C@H]3C[C@H](O)[C@]12C | > 100 | > 100 µM | > 100 µM | > 100 µM |  |  | > 100 µM | > 100 µM | > 100 µM | > 100 µM |  |  |
| CSC1=N/C(=C\c2ccc(C)cc2)C(=O)N1CN1CCCCC1 | > 100 |  | > 100 µM | > 100 µM | > 100 µM | > 100 µM | > 100 µM | > 100 µM |  |  |  |  |
| CNc1cc2c(c3ccccc13)C(CCl)CN2C(=O)c1cc2cc(OC)c(OC)c(OC)c2[nH]1 (centres undefined) |  |  | 0.0319 µM | 0.00191 µM | 1.32 µM | 0.00435 µM | 0.00733 µM |  | 0.000667 µM |  |  |  |
| Cc1c2n(c(=O)[nH]c1=O)C1OC(CO)C(N=[N+]=[N-])C1O2 (centres undefined) |  |  | > 100 µM | > 100 µM | > 100 µM | > 100 µM | > 100 µM | > 100 µM | > 100 µM | > 100 µM |  |  |
| O=[N+]([O-])C(=C(Nc1cccc2cccnc12)Nc1cccc2cccnc12)C(Cl)=C(Cl)Cl | > 100 | > 100 µM | > 100 µM | > 100 µM | > 100 µM | 30.5 µM | > 100 µM | > 100 µM |  | > 100 µM |  |  |
| CCOC(=O)c1c(-c2ccc(O)c(OC)c2)c(C#N)c(=S)n(C2OC(CO)C(O)C(O)C2O)c1-c1ccccc1 (centres undefined) | > 100 | > 100 µM | > 100 µM | > 100 µM | > 100 µM | > 100 µM | > 100 µM | > 100 µM | > 100 µM |  |  |  |
| CCCCCCCCCCCCCCCCNc1cccc2ccccc12 |  | > 100 µM | > 100 µM | > 100 µM | > 100 µM |  | > 100 µM | > 100 µM | > 100 µM | > 100 µM |  |  |
| Cc1cccc(C)c1NC(=O)C(Cc1c[nH]c2ccccc12)NC(=O)OCc1ccccc1 (centres undefined) | 51.6 |  | > 100 µM | 70.8 µM | 69.3 µM | 28.9 µM | > 100 µM | 32.9 µM | 44.3 µM | 41 µM |  |  |
| CC(=O)NC1C(OCc2ccccc2)OC(CO)C(O)C1OCC(=O)N[C@@H](C)C(=O)N[C@H](CCC(=O)NCCCNc1c2ccccc2nc2cccc([N+](=O)[O-])c12)C(N)=O (some centres undefined) |  | 0.0301 µM | 0.576 µM | 0.0835 µM | 0.566 µM | 0.0383 µM |  | 0.341 µM | > 49.7 µM | 0.279 µM |  |  |
| CCOS(C)(=O)=O | > 100 | > 100 µM |  | > 100 µM | > 100 µM | > 100 µM | > 100 µM | > 100 µM | > 100 µM | > 100 µM |  |  |
| O=C1NC2c3c(I)sc(I)c3C(O)C2O1 (centres undefined) | > 100 | > 100 µM | > 100 µM | > 100 µM | > 100 µM |  | > 100 µM | > 100 µM | > 100 µM | > 100 µM |  |  |
| O=C(O)[C@H]1CCCN1CP(=O)(O)CN1CCC[C@@H]1C(=O)O | > 100 |  | > 100 µM | > 100 µM | > 100 µM | > 100 µM | > 100 µM | > 100 µM | > 100 µM |  |  |  |
| COC(=O)C(=Cc1cc(OC)c(OC)c(OC)c1-c1cc2c(cc1C1(C)OCCS1)OCO2)C(=O)OC (centres undefined) |  | > 100 µM | > 100 µM | > 100 µM | 54.6 µM | > 100 µM | > 100 µM |  | > 100 µM | > 100 µM |  |  |
| CCOC(=O)N1CCC(N[C@@H]2c3cc4c(cc3C(c3cc(OC)c(O)c(OC)c3)C3C(=O)OC[C@@H]32)OCO4)CC1 (some centres undefined) |  | 6.82 µM and 7.22 µM | 2.63 µM and 2.65 µM | 2.62 µM and 2.69 µM | 17.5 µM and 11.6 µM | 5.71 µM and 5.32 µM | 13.7 µM and 7.55 µM | 3.21 µM and 4.14 µM | 2 µM and 5.46 µM | 5.78 µM and 4.71 µM | 1.53 µM and 3.47 µM | 0.221 µM and 0.468 µM |
| COc1ccc(C2c3cn[nH]c3CC3CCCCC32)cc1 (centres undefined) | 26.3 | 35 µM | 36.8 µM | 33.6 µM | 28.9 µM | 29.1 µM | 35.4 µM | 29.9 µM | 61.2 µM |  |  |  |
